From patent US8858962B2, “Adjuvant or pharmaceutical preparation for transdermal or transmucosal administration” (priority 2005, dated 2014)

Columns and labels:
MHC Class II molecules = assay: Intensity of expression of MHC Class II molecules by lymph cells after transdermal adjuvant (flow cytometry, FIG. 1); format: in vivo, BALB/c mice; details: for lymph cell count: 50 uL of acetone solution (50%) on shaved abdomen, lymph node removed 5 days later
Procedure: On the other hand, for a group for which an antigen hapten was used in combination, 50 uL of a 1:1 mixture of an FITC solution (5 mg/mL in acetone) and a solution of the adjuvant was transdermally administered to the abdomen. 5 days later, lymph node (cervix, groin) was removed, and the intensity of expression of MHC Class II molecules by lymph cells was analyzed by flow cytometry (FIG. 1).

BALB/c mice = assay: Skin irritation score, intradermal vs transdermal administration; format: in vivo
[1] = system: OVA-specific IgG antibody; assay: OVA-specific IgG antibody titer by ELISA; OVA intradermal plus adjuvant transdermal; format: in vivo, BALB/c mice; details: for Antibody titer (×10^4): OVA 10 ug/head intradermal, 25 uL adjuvant transdermal, dosing at 0, 2, 4 W, 5 W data; for antigen IgG immune response: intradermal ovalbumin plus transdermal adjuvant on intact skin
Procedure: OVA was dissolved in physiological saline and adjusted to give 10 ug/head, and for an OVA-only group 25 uL of the OVA aqueous solution was intradermally administered. For groups in which there was combined use with various types of adjuvant, immediately after the OVA solution was intradermally administered, 25 uL of the adjuvant solution was transdermally administered (coated) via the skin surface of the abdomen. Administration was carried out at 0, 2, and 4 W, blood was collected at 2, 4, and 5 W, and the OVA-specific IgG antibody titer after 2, 4, and 5 W was measured by ELISA.

[2] = system: OVA-specific IgG antibody; assay: OVA-specific IgG antibody titer; OVA/LA emulsion with microneedle, skin abrasion or iontophoresis (FIG. 2); format: in vivo, BALB/c mice; details: OVA 100 ug/head; OVA solution:LA:Tween 20 1:1:0.01; IP, MN, Skin Prep modes; 4 W data
Procedure: OVA (ovalbumin antigen) was adjusted to give 100 ug/head, for an OVA-only group an OVA aqueous solution was applied, and for a group in which lauryl alcohol (LA) was used in combination, an emulsified solution formed by mixing the OVA solution, LA and Tween 20 (emulsifier) at 1:1:0.01 was used. For the microneedle group, the pre-shaved abdomen skin was punctured with 1 cm^2 of microneedles (needle length about 200 um, 400 needles/cm^2), and immediately after this 50 uL of the above-mentioned emulsion solution was applied. For the skin abrasion treatment group, instead of the microneedles, the skin was abraded 5 times with 3M RED Dot™ 2236 and 50 uL of the emulsion solution was applied. For the iontophoresis group, after the shaven abdomen skin was coated with 50 uL of the emulsion solution, an iontophoresis preparation (nonwoven cloth preparation: Ag, Ag/AgCl 1 cm^2) formed by impregnating a nonwoven cloth with physiological saline was affixed to the coated site, and direct current (0.4 mA/patch) was applied for 1 hour. Administration was carried out at 0, 2, and 4 W, blood was collected at 2, 4, and 5 W, and the OVA-specific IgG antibody titer was measured by ELISA.

[3] = system: OVA-specific IgG antibody; assay: OVA-specific IgG antibody titer; antigen-coated microneedles with LA applied in advance (FIG. 3); format: in vivo, hairless rats; details: OVA 2 mg/patch on coated microneedles, punctured 2 hours
Procedure: OVA was adjusted to give 2 mg/patch, a needle portion of microneedles was coated with the antigen and 5% polyvinyl alcohol liquid, and for a microneedle group the abdomen of 7 to 8 W male hairless rats was punctured for 2 hours with physiological saline dropped onto the skin side. For a microneedle+lauryl alcohol group, LA was applied in advance, physiological saline was dropped onto the skin side, and it was punctured for 2 hours with microneedle needles coated with the antigen and 5% polyvinyl alcohol liquid. Administration was carried out at 0, 2, and 4 W, blood was collected at 2, 4, and 5 W, and the OVA-specific IgG antibody titer was measured by ELISA.

[4] = system: OVA-specific IgG antibody; assay: OVA-specific IgG antibody titer; microneedles coated with antigen emulsion (FIG. 4); format: in vivo, hairless rats; details: OVA 2 mg/patch; microneedles coated with emulsion antigen:oil or alcohol:Tween 80 1:1:0.01; punctured 2 hours
Procedure: OVA was adjusted to give 2 mg/patch, and for a microneedle group (OVA+5% polyvinyl alcohol), the abdomen of 7 to 8 W male hairless rats was punctured for 2 hours with a needle portion of microneedles coated with antigen and 5% polyvinyl alcohol liquid [mixed at antigen solution:10% polyvinyl alcohol=1:1]. Furthermore, for microneedle groups (OVA+olive oil) or (OVA+lauryl alcohol), microneedle needles were coated with an emulsion [antigen solution:olive oil or lauryl alcohol:surfactant (Tween 80)=1:1:0.01], and puncturing was carried out for 2 hours. Administration was carried out at 0, 2, and 4 W, blood was collected at 2, 4, and 5 W, and the OVA-specific IgG antibody titer was measured by ELISA.

[5] = system: OVA-specific IgG antibody; assay: OVA-specific IgG antibody titer; microneedles coated with antigen emulsion (FIG. 5); format: in vivo, BALB/c mice; details: OVA 0.1 mg/patch; microneedles coated with emulsion 1:1:0.01 (Tween 80); punctured 2 hours
Procedure: Furthermore, for microneedle groups (OVA+lauryl alcohol or oleyl alcohol) microneedle needles were coated with an emulsion [antigen solution:olive oil or lauryl alcohol:surfactant (Tween 80)=1:1:0.01], and puncturing was carried out for 2 hours. Administering was carried out at 0, 2, and 4 W, blood was collected at 2, 4, and 5 W, and the OVA-specific IgG antibody titer was measured by ELISA.

OVA = assay: Effect of LA adjuvant in administration via oral mucous membrane, antibody titer (FIG. 7); format: in vivo, BALB/c mice; details: OVA 2500 ug/head; antigen solution:LA:Tween 80 8:2:0.05 and 5:5:0.05; blood after 2 weeks

Molecule	lymph cell count (MHC Class II molecules)	skin irritation on transdermal administration (BALB/c mice)	Antibody titer (×10^4) [1]	other results
CC(C)CCCCCCCCCCCCCCCO [Isostearyl alcohol, isostearyl alcohol]	remarkable increase	did not cause skin irritation	1.3 ×10^4	–
CCCCCCCCCCCCO [Lauryl alcohol, lauryl alcohol]	remarkable increase	did not cause skin irritation	2.1 ×10^4	adjuvant effect in transdermal administration (MHC Class II molecules; comparison among adjuvants): most outstanding adjuvant effect; antigen IgG immune response [1]: highest immune response; OVA-specific IgG antibody titer [2]: significant increase; OVA-specific IgG antibody titer [3]: increased,remarkably; OVA-specific IgG antibody titer [4]: increased remarkably; OVA-specific IgG antibody titer [5]: increased remarkably; antibody titer, oral mucous membrane administration (OVA): increased in response to the LA concentration
CCCCCCCCCCC(CO)CCCCCCCC (centres unmarked) [Octyldodecanol, octyldodecanol]	–	did not cause skin irritation	0.6 ×10^4	–
CCCCCCCC/C=C\CCCCCCCCO [Oleyl alcohol, oleyl alcohol]	remarkable increase	did not cause skin irritation	2.1 ×10^4	antigen IgG immune response [1]: highest immune response; OVA-specific IgG antibody titer [5]: increased remarkably
CCCCCCCC/C=C\CCCCCCCC(=O)O [oleic acid]	remarkable increase	–	–	–
polyethylene glycol monolaurate	–	did not cause skin irritation	0.9 ×10^4	–
sorbitan monolaurate	remarkable increase	did not cause skin irritation	–	–
sorbitan monooleate	remarkable increase	–	–	–
